For the experiment, the target named is T1, IGFR kinase (Homo sapiens, UniProt P08069).
T1 construct: purchased Millipore
In words: Enzyme assay (c), IGFR kinase, Caliper LabChip. The class given is biochemical. The conditions noted are these: 30 nM IGFR kinase, 6 uM ATP, 3 uM peptide mix; read-out: IGFR IC50. The procedure: For Echo dosing the solvent was 100% DMSO. A master plate was prepared with 40 ul of 10 mM stock solution of the test compound in DMSO in quadrant 1 of a Labcyte 384 well plate. A 1 in 100 dilution was made from quadrant 1 into quadrant 2 by removing 0.4 ul and adding it to 39.6 ul of DMSO. Subsequent 1 in 100 dilutions were made into quadrant 3 from quadrant 2 and quadrant 4 from quadrant 3.
Multiple 2.5 nl droplets were dispensed from each quadrant of the master plate to generate the dose range that was required in the test. The dose range most commonly used was as follows: 100 uM, 30 uM, 10 uM, 3 uM, 1 uM, 0.3 uM, 0.1 uM, 0.03 uM, 0.01 uM, 0.003 uM, 0.001 uM, 0.0001 uM. Each well was backfilled with dimethyl sulfoxide (DMSO) to a total volume of 120 nl, such that when the enzyme and substrate mix was added the final DMSO concentration was 1%.
DMSO was added to max control wells as 120 nl, minimum control wells were treated with 120 nl of compound at a concentration that inhibited the enzyme activity 100%.
Integration of the substrate and product peaks was carried out using Caliper LabChip software and IC50 curves were calculated using Origin™ software.

The IC50 is the midpoint of a concentration-inhibition curve.

T1 sequence (P08069 31-1367): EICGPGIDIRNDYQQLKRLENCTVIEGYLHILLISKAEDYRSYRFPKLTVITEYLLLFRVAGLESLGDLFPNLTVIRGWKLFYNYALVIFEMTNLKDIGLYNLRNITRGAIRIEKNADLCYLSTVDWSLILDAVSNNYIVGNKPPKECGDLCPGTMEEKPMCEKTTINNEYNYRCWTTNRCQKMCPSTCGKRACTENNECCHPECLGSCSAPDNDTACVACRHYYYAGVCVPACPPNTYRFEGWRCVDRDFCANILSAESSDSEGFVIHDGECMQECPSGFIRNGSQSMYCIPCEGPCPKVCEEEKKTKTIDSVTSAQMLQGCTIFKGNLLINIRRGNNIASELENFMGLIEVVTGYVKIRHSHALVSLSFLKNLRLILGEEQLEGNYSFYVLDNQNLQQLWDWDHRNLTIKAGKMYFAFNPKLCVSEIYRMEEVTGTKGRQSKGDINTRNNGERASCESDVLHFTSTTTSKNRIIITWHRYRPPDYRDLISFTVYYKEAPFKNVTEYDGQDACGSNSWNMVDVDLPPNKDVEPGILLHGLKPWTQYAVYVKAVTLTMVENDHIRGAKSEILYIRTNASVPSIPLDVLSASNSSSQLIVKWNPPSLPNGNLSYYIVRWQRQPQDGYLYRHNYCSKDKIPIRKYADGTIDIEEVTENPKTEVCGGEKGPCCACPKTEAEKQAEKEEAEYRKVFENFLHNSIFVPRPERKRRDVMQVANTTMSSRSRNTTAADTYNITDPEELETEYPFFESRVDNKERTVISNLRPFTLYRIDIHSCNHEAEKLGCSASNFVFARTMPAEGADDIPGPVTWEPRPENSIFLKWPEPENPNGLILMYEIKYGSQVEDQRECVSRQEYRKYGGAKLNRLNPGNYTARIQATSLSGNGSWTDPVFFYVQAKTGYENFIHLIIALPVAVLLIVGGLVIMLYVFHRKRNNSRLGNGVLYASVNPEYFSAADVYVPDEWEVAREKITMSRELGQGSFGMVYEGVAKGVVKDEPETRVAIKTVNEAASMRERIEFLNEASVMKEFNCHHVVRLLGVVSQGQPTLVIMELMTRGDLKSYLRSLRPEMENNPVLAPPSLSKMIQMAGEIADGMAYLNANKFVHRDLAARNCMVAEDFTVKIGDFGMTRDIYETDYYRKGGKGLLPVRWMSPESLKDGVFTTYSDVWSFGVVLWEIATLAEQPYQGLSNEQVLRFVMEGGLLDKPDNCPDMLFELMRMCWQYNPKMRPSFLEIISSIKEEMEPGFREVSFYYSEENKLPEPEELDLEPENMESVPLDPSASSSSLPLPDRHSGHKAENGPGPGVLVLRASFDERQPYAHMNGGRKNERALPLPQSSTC

On to `COc1cc(OC2CN(C[C@@H](C)O)C2)ccc1Nc1ncc(Cl)c(-c2cnc3ccccn23)n1` [Example 62, (2R)-1-[3-[4-[(5-chloro-4-imidazo[1,2-a]pyridin-3-yl-pyrimidin-2-yl)amino]-3-methoxy-phenoxy]azetidin-1-yl]propan-2-ol], for which the IC50 was 19 nM. The result for `COc1cc(C2CCN(C(=O)[C@@H](C)O)CC2)ccc1Nc1ncc(Cl)c(-c2cnn3ccccc23)n1` [Example 138, (2R)-1-[4-[4-[(5-chloro-4-pyrazolo[1,5-a]pyridin-3-yl-pyrimidin-2-yl)amino]-3-methoxy-phenyl]-1-piperidyl]-2-hydroxy-propan-1-one] reads 3 nM.

In the case of `COc1cc(N2CC3CN(C(=O)[C@@H](C)O)CC(C2)O3)ccc1Nc1ncc(Cl)c(-c2cnc3c(F)cccn23)n1` [Example 214, (2R)-1-[3-[4-[[5-chloro-4-(8-fluoroimidazo[1,2-a]pyridin-3-yl)pyrimidin-2-yl]amino]-3-methoxy-phenyl]-9-oxa-3,7-diazabicyclo[3.3.1]nonan-7-yl]-2-hydroxy-propan-1-one], the IC50 was found to be 18 nM.

For `COc1cc(C(CO)CO)ccc1Nc1ncc(Cl)c(-c2cnc3c(F)cccn23)n1` [Example 181, 2-[4-[[5-chloro-4-(8-fluoroimidazo[1,2-a]pyridin-3-yl)pyrimidin-2-yl]amino]-3-methoxy-phenyl]propane-1,3-diol], the half-inhibitory concentration (IC50) worked out at 21 nM.

`COCCN1CCN(c2ccc(Nc3ncc(Cl)c(-c4cnc5ccccn45)n3)c(OC)c2)CC1` [Example 3.46, 5-chloro-4-imidazo[1,2-a]pyridin-3-yl-N-[2-methoxy-4-[4-(2-methoxyethyl)piperazin-1-yl]phenyl]pyrimidin-2-amine]: the IC50 amounted to 6 nM. As for `COc1cc(CN2CCC[C@H](O)C2)ccc1Nc1ncc(Cl)c(-c2cnc3ccccn23)n1` [Example 21.17, (3S)-1-[[4-[(5-chloro-4-imidazo[1,2-a]pyridin-3-yl-pyrimidin-2-yl)amino]-3-methoxy-phenyl]methyl]piperidin-3-ol], the figure is 28 nM. Regarding `COc1cc(C(=O)N2C[C@@H]3C[C@H]2CN3C)ccc1Nc1ncc(Cl)c(-c2cnc3ccccn23)n1` [Example 31, [4-[(5-chloro-4-imidazo[1,2-a]pyridin-3-yl-pyrimidin-2-yl)amino]-3-methoxy-phenyl]-[(1S,4S)-5-methyl-2,5-diazabicyclo[2.2.1]heptan-2-yl]methanone], the half-maximal inhibitory concentration (IC50) came to 21 nM. The result for `COc1cc(N2CCN(C(=O)[C@@H](N)CC(N)=O)CC2)ccc1Nc1ncc(Cl)c(-c2cnc3ccccn23)n1` [Example 24.8, (3S)-3-amino-4-[4-[4-[(5-chloro-4-imidazo[1,2-a]pyridin-3-yl-pyrimidin-2-yl)amino]-3-methoxy-phenyl]piperazin-1-yl]-4-oxo-butanamide] reads 7 nM; that for `COc1cc(N(C)CCN(C)C(=O)CO)ccc1Nc1ncc(Cl)c(-c2cnc3c(F)cccn23)n1` [Example 220, N-[2-[4-[[5-chloro-4-(8-fluoroimidazo[1,2-a]pyridin-3-yl)pyrimidin-2-yl]amino]-3-methoxy-N-methyl-anilino]ethyl]-2-hydroxy-N-methyl-acetamide], 5 nM; that for `COc1cc(N2CCN(C(C)(C)CO)CC2)ccc1Nc1ncc(C)c(-c2cnc3cc(C)ccn23)n1` [Example 262, 2-[4-[3-methoxy-4-[[5-methyl-4-(7-methylimidazo[1,2-a]pyridin-3-yl)pyrimidin-2-yl]amino]phenyl]piperazin-1-yl]-2-methyl-propan-1-ol], 39 nM. Regarding `COc1cc(N2CCN(CCC#N)CC2)ccc1Nc1ncc(Cl)c(-c2cnc3ccccn23)n1` [Example 49, 3-[4-[4-[(5-chloro-4-imidazo[1,2-a]pyridin-3-yl-pyrimidin-2-yl)amino]-3-methoxy-phenyl]piperazin-1-yl]propanenitrile], the concentration for half-maximal inhibition (IC50) stood at 14 nM. As for `COc1cc(N2CC3CN(C(=O)CN)CC(C2)O3)ccc1Nc1ncc(Cl)c(-c2cnc3c(F)cccn23)n1` [Example 209, 2-amino-1-[7-[4-[[5-chloro-4-(8-fluoroimidazo[1,2-a]pyridin-3-yl)pyrimidin-2-yl]amino]-3-methoxy-phenyl]-9-oxa-3,7-diazabicyclo[3.3.1]nonan-3-yl]ethanone], the figure is 30 nM. Consider `COc1cc(N2CC3CNCC(C2)O3)ccc1Nc1ncc(Cl)c(-c2cnn3ccccc23)n1` [Example 149, 5-chloro-N-[2-methoxy-4-(9-oxa-3,7-diazabicyclo[3.3.1]nonan-7-yl)phenyl]-4-pyrazolo[1,5-a]pyridin-3-yl-pyrimidin-2-amine], for which the IC50 was found to be 7 nM.

`COc1cc(N2CCN(C(=O)[C@@H](C)O)CC2)ccc1Nc1ncc(Cl)c(-c2cnc3ccc(F)cn23)n1` [Example 255, (2R)-1-[4-[4-[[5-chloro-4-(6-fluoroimidazo[1,2-a]pyridin-3-yl)pyrimidin-2-yl]amino]-3-methoxy-phenyl]piperazin-1-yl]-2-hydroxy-propan-1-one]: the IC50 is 5 nM.

Consider `COc1ccc(N2CCC(OC)CC2)cc1Nc1ncc(Cl)c(-c2cnc3ccccn23)n1` [Example 3.20, 5-chloro-4-imidazo[1,2-a]pyridin-3-yl-N-[2-methoxy-5-(4-methoxy-1-piperidyl)phenyl]pyrimidin-2-amine], for which the IC50 came out at 43 nM.

With `COc1cc(O[C@H]2CCN(S(C)(=O)=O)C2)ccc1Nc1ncc(Cl)c(-c2cnc3ccccn23)n1` [Example 14, 5-chloro-4-imidazo[1,2-a]pyridin-3-yl-N-[2-methoxy-4-[(3S)-1-methylsulfonylpyrrolidin-3-yl]oxy-phenyl]pyrimidin-2-amine], the IC50 was determined as 19 nM. As for `COc1cc(N2CCN(C(C)(C)CO)CC2)ccc1Nc1ncc(C)c(-c2cnc3ccccn23)n1` [Example 229, 2-[4-[4-[(4-imidazo[1,2-a]pyridin-3-yl-5-methyl-pyrimidin-2-yl)amino]-3-methoxy-phenyl]piperazin-1-yl]-2-methyl-propan-1-ol], the IC50 worked out at 20 nM. As for `COc1ccc(N2CCCC2)cc1Nc1ncc(Cl)c(-c2cnc3ccccn23)n1` [Example 3.8, 5-chloro-4-imidazo[1,2-a]pyridin-3-yl-N-(2-methoxy-5-pyrrolidin-1-yl-phenyl)pyrimidin-2-amine], the figure is 309 nM; as for `COc1cc(N2C[C@@H]3C[C@H]2CN3C(C)=O)ccc1Nc1ncc(Cl)c(-c2cnn3ccccc23)n1` [Example 241, 1-[(1S,4S)-2-[4-[(5-chloro-4-pyrazolo[1,5-a]pyridin-3-yl-pyrimidin-2-yl)amino]-3-methoxy-phenyl]-2,5-diazabicyclo[2.2.1]heptan-5-yl]ethanone], 36 nM; as for `COc1cc(N2CCN(C)CC2)ccc1Nc1ncc(Br)c(-c2cnc3ccccn23)n1` [Example 121, 5-bromo-4-imidazo[1,2-a]pyridin-3-yl-N-[2-methoxy-4-(4-methylpiperazin-1-yl)phenyl]pyrimidin-2-amine], 15 nM. As for `COc1cc(CN(C)CCO)ccc1Nc1ncc(Cl)c(-c2cnc3ccccn23)n1` [Example 21.2, 2-[[4-[(5-chloro-4-imidazo[1,2-a]pyridin-3-yl-pyrimidin-2-yl)amino]-3-methoxy-phenyl]methyl-methyl-amino]ethanol], the IC50 amounted to 37 nM.

With `COc1cc(N2CCN(C[C@@H](C)O)CC2)ccc1Nc1ncc(F)c(-c2cnc3ccccn23)n1` [Example 90, (2R)-1-[4-[4-[(5-fluoro-4-imidazo[1,2-a]pyridin-3-yl-pyrimidin-2-yl)amino]-3-methoxy-phenyl]piperazin-1-yl]propan-2-ol], the half-maximal inhibitory concentration (IC50) stood at 37 nM.

Take `COc1cc(N2CCNCC2)ccc1Nc1ncc(Cl)c(-c2cnc3c(F)cc(F)cn23)n1` [Example 265, 5-chloro-4-(6,8-difluoroimidazo[1,2-a]pyridin-3-yl)-N-(2-methoxy-4-piperazin-1-yl-phenyl)pyrimidin-2-amine]: the half-inhibitory concentration (IC50) stood at 6 nM. On to `COc1cc(N2CCN(CCO)CC2)ccc1Nc1ncc(Cl)c(-c2cnc3ccc(F)cn23)n1` [Example 263, 2-[4-[4-[[5-chloro-4-(6-fluoroimidazo[1,2-a]pyridin-3-yl)pyrimidin-2-yl]amino]-3-methoxy-phenyl]piperazin-1-yl]ethanol], for which the half-maximal inhibitory concentration (IC50) came to 7 nM.

For `COc1cc(C2CCN(C(=O)N(C)CCO)CC2)ccc1Nc1ncc(Cl)c(-c2cnc3ccccn23)n1` [Example 58, 4-[4-[(5-chloro-4-imidazo[1,2-a]pyridin-3-yl-pyrimidin-2-yl)amino]-3-methoxy-phenyl]-N-(2-hydroxyethyl)-N-methyl-piperidine-1-carboxamide], the half-maximal inhibitory concentration (IC50) came out at 6 nM.

As to `COc1cc(N2CCN(C(=O)CO)CC2)ccc1Nc1ncc(Cl)c(-c2cnc3c(F)cc(F)cn23)n1` [Example 250, 1-[4-[4-[[5-chloro-4-(6,8-difluoroimidazo[1,2-a]pyridin-3-yl)pyrimidin-2-yl]amino]-3-methoxy-phenyl]piperazin-1-yl]-2-hydroxy-ethanone], the 50% inhibitory concentration (IC50) worked out at 7 nM. The result for `COc1cc(N2CCN(CC(C)(C)O)CC2)ccc1Nc1ncc(C)c(-c2cnc3ccccn23)n1` [Example 106, 1-[4-[4-[(4-imidazo[1,2-a]pyridin-3-yl-5-methyl-pyrimidin-2-yl)amino]-3-methoxy-phenyl]piperazin-1-yl]-2-methyl-propan-2-ol] reads 28 nM.
